Measured values from patent US9211310B2, “Use of a Chinese medicine composition in preparing medicaments for treating secondary prevention of myocardial infarction” (TASLY PHARMACEUTICAL GROUP CO., LTD, priority 2010, dated 2015).

Tested on: patients after acute myocardial infarction
Experiment: TCM symptom score, total and single (chest pain, chest tightness, short breath, fatigue, palpitation, spontaneous perspiration, pale complexion), same clinical trial
Type: in vivo, human
Excerpt: 3508 patients who were in accordance with the diagnostic standards of AMI for 28 days to 2 years and differentiated as Qi deficiency and blood stagnation syndrome by TCM were studied. 0.5 g Chinese medicine composition prepared by the method of EXAMPLE 1 (Coded as QSYQ) was administrated half an hour after meal, 3 times per day.
They included the overall survival time, angina pectoris score, TCM symptom score and life quality score, where angina pectoris score, TCM symptom score and life quality score were evaluated at randomization, in 1st, 3rd, 6th, 9th, 12th month after treatment and 18th month after follow-up.
The analysis method referred to the angina pectoris score.

[1] = 9 months after treatment-baseline, FAS
[2] = 9 months after treatment-baseline, PP
[3] = 12 months after treatment-baseline, FAS

## CC(=O)Oc1ccccc1C(=O)O [Control group, aspirine]
6 months after treatment, PP
  chest pain score 0, percent of patients: (42.93%)
  chest pain score 3, number of patients: 539
  chest pain score 3, percent of patients: (37.75%)
  chest pain score 6, number of patients: 272
  chest pain score 6, percent of patients: (19.05%)
  chest pain score 9, number of patients: 4
  chest pain score 9, percent of patients: (0.28%)
  chest tightness score 0, number of patients: 613
  chest tightness score 0, percent of patients: (42.93%)
  chest tightness score 3, number of patients: 539
  chest tightness score 3, percent of patients: (37.75%)
  chest tightness score 6, number of patients: 272
  chest tightness score 6, percent of patients: (19.05%)
  chest tightness score 9, number of patients: 4
  chest tightness score 9, percent of patients: (0.28%)
[1]
  change of chest pain score 0, number of patients: 1022
  change of chest pain score 0, percent of patients: (59.80%)
  change of chest pain score 3, number of patients: 463
  change of chest pain score 3, percent of patients: (27.09%)
  change of chest pain score 6, number of patients: 124
  change of chest pain score 6, percent of patients: (7.26%)
  change of chest pain score 9, number of patients: 6
  change of chest pain score 9, percent of patients: (0.35%)
  change of chest pain score −3, number of patients: 81
  change of chest pain score −3, percent of patients: (4.74%)
  change of chest pain score −6, number of patients: 13
  change of chest pain score −6, percent of patients: (0.76%)
  change of chest pain score −9, number of patients: 0
  change of chest pain score −9, percent of patients: (0.00%)
  change of chest tightness score 0, number of patients: 1007
  change of chest tightness score 0, percent of patients: (58.92%)
  change of chest tightness score 3, number of patients: 534
  change of chest tightness score 3, percent of patients: (31.25%)
  change of chest tightness score 6, number of patients: 68
  change of chest tightness score 6, percent of patients: (3.98%)
  change of chest tightness score 9, number of patients: 4
  change of chest tightness score 9, percent of patients: (0.23%)
  change of chest tightness score −3, number of patients: 93
  change of chest tightness score −3, percent of patients: (5.44%)
  change of chest tightness score −6, number of patients: 3
  change of chest tightness score −6, percent of patients: (0.18%)
  change of chest tightness score −9, number of patients: 0
  change of chest tightness score −9, percent of patients: (0.00%)
[2]
  change of chest pain score 0, number of patients: 826
  change of chest pain score 0, percent of patients: (58.58%)
  change of chest pain score 3, number of patients: 409
  change of chest pain score 3, percent of patients: (29.01%)
  change of chest pain score 6, number of patients: 106
  change of chest pain score 6, percent of patients: (7.52%)
  change of chest pain score 9, number of patients: 4
  change of chest pain score 9, percent of patients: (0.28%)
  change of chest pain score −3, number of patients: 58
  change of chest pain score −3, percent of patients: (4.11%)
  change of chest pain score −6, number of patients: 7
  change of chest pain score −6, percent of patients: (0.50%)
  change of chest pain score −9, number of patients: 0
  change of chest pain score −9, percent of patients: (0.00%)
  change of chest tightness score 0, number of patients: 801
  change of chest tightness score 0, percent of patients: (56.81%)
  change of chest tightness score 3, number of patients: 476
  change of chest tightness score 3, percent of patients: (33.76%)
  change of chest tightness score 6, number of patients: 62
  change of chest tightness score 6, percent of patients: (4.40%)
  change of chest tightness score 9, number of patients: 3
  change of chest tightness score 9, percent of patients: (0.21%)
  change of chest tightness score −3, number of patients: 65
  change of chest tightness score −3, percent of patients: (4.61%)
  change of chest tightness score −6, number of patients: 3
  change of chest tightness score −6, percent of patients: (0.21%)
  change of chest tightness score −9, number of patients: 0
  change of chest tightness score −9, percent of patients: (0.00%)
9 months after treatment, FAS
  chest pain score 0, number of patients: 791
  chest pain score 0, percent of patients: (46.04%)
  chest pain score 3, number of patients: 618
  chest pain score 3, percent of patients: (35.97%)
  chest pain score 6, number of patients: 305
  chest pain score 6, percent of patients: (17.75%)
  chest pain score 9, number of patients: 4
  chest pain score 9, percent of patients: (0.23%)
  chest tightness score 0, number of patients: 791
  chest tightness score 0, percent of patients: (46.04%)
  chest tightness score 3, number of patients: 618
  chest tightness score 3, percent of patients: (35.97%)
  chest tightness score 6, number of patients: 305
  chest tightness score 6, percent of patients: (17.75%)
  chest tightness score 9, number of patients: 4
  chest tightness score 9, percent of patients: (0.23%)
9 months after treatment, PP
  chest pain score 0, number of patients: 661
  chest pain score 0, percent of patients: (46.71%)
  chest pain score 3, number of patients: 519
  chest pain score 3, percent of patients: (36.68%)
  chest pain score 6, number of patients: 233
  chest pain score 6, percent of patients: (16.47%)
  chest pain score 9, number of patients: 2
  chest pain score 9, percent of patients: (0.14%)
  chest tightness score 0, number of patients: 661
  chest tightness score 0, percent of patients: (46.71%)
  chest tightness score 3, number of patients: 519
  chest tightness score 3, percent of patients: (36.68%)
  chest tightness score 6, number of patients: 233
  chest tightness score 6, percent of patients: (16.47%)
  chest tightness score 9, number of patients: 2
  chest tightness score 9, percent of patients: (0.14%)
[3]
  change of chest pain score 0, number of patients: 962
  change of chest pain score 0, percent of patients: (56.29%)
  change of chest pain score 3, number of patients: 511
  change of chest pain score 3, percent of patients: (29.90%)
  change of chest pain score 6, number of patients: 150
  change of chest pain score 6, percent of patients: (8.78%)
  change of chest pain score 9, number of patients: 7
  change of chest pain score 9, percent of patients: (0.41%)
  change of chest pain score −3, number of patients: 70
  change of chest pain score −3, percent of patients: (4.10%)
  change of chest pain score −6, number of patients: 9
  change of chest pain score −6, percent of patients: (0.53%)
  change of chest pain score −9, number of patients: 0
  change of chest pain score −9, percent of patients: (0.00%)
  change of chest tightness score 0, number of patients: 933
  change of chest tightness score 0, percent of patients: (54.59%)
  change of chest tightness score 3, number of patients: 598
  change of chest tightness score 3, percent of patients: (34.99%)
  change of chest tightness score 6, number of patients: 87
  change of chest tightness score 6, percent of patients: (5.09%)
